# Patent US20100255580A1, “Differentiation of Human Embryonic Stem Cells” (LIFESCCAN, INC., priority 2007, published 2010)
# Experiments:
# [1] = tested on: human embryonic stem cell line H7; assay: FACS analysis of protein expression following activin A treatment, H7; assay type: cell-based; settings: AA 100 ng/ml
# Source text: (§1) The level of expression of definitive endoderm markers was examined by PCR (FIG. 1), FACS (results summarized in Table II), and immunohistochemistry (FIG. 2).
# CXCR4 positive cells were also highly positive for C-kit, EPCAM, CD99, and negative for CD9. The expression pattern for these markers was consistent among all three hES cell lines examined (Table IIB for H7 and Table IIC for H1). […] In parallel, almost 100% of the differentiated cells were […] (FIG. 2).
# (§2) Adhered cells were removed from culture plates by five-minute incubation with TrypLE™ Express solution (Invitrogen, CA). Released cells were resuspended in human embryonic stem cell culture medium and recovered by centrifugation, followed by washing and resuspending the cells in a staining buffer consisting of 2% BSA, 0.05% sodium azide in PBS (Sigma, MO). As appropriate, the cells were Fc-receptor blocked for 15 minutes using a 0.1% γ-globulin (Sigma) solution. […] Controls included appropriate isotype matched antibodies, unstained cells, and cells stained only with secondary conjugated antibody. All incubations with antibodies were performed for 30 mins at 4° C. after which the cells were washed with the staining buffer. Samples that were stained with unconjugated primary antibodies were incubated for an additional 30 mins at 4° C. with secondary conjugated PE or -APC labeled antibodies. See Table I for a list of secondary antibodies used. Washed cells were pelleted and resuspended in the staining buffer, and the cell surface molecules were identified using a FACS Array (BD Biosciences) instrument, collecting at least 10,000 events.
# [2] = tested on: human embryonic stem cell line H9; assay: FACS analysis of protein expression following activin A treatment, H9 on MEF; assay type: cell-based; settings: for CD9 protein expression (FACS) / CXCR4 protein expression (FACS) / ECAM protein expression (FACS) / NCAM protein expression (FACS) / SSEA-3 protein expression (FACS): activin A 100 ng/ml
# Experimental: as §1, §2
# SA002 ES line = assay: Real-time PCR and FACS of DE markers, SA002 on […]; assay type: cell-based, human; settings: SA002 P38; 20 ng/ml Wnt-3a with 100 ng/ml activin A
# Source text: Expression of CXCR4 is depicted in FIG. 45: a) AA treatment b) AA+Wnt-3a c) AA+GSK-3B inhibitor.
# H9 embryonic stem cells = assay: Immunofluorescence staining of DE markers +/- Wnt-3a (Example 27); assay type: cell-based, human; settings: 20 ng/ml Wnt-3a; Day 5 DE cultures
# Source text: Day 5 DE cultures of H9 cells were stained according to Example 10 for SOX-17, HNF-3B, GATA-4, N-cadherin, and E-cadherin. All nuclei were counter stained with DAPI.
substance,measurement,setting,value
Activin A: a member of the TGFβ superfamily; R&D Systems; Group 2 = Activin A (100 ng/ml),CXCR4+,[1]; 1-day,6%
same,CXCR4+ C-Kit+,[1]; 1-day,2.97%
same,CXCR4+ CD9+,[1]; 1-day,8.13%
same,CXCR4+ EPCAM+,[1]; 1-day,14.58%
same,CXCR4+,[1]; 3-day,38%
same,CXCR4+ C-Kit+,[1]; 3-day,31.56%
same,CXCR4+ CD9+,[1]; 3-day,24.11%
same,CXCR4+ EPCAM+,[1]; 3-day,36.67%
same,CXCR4+,[1]; 5-day,65.5%
same,CXCR4+ C-Kit+,[1]; 5-day,55.21%
same,CXCR4+ CD9+,[1]; 5-day,2.1%
same,CXCR4+ EPCAM+,[1]; 5-day,54.5%
same,CD9 protein expression (FACS),[2]; 2-DAY,29.42%
same,CXCR4 protein expression (FACS),[2]; 2-DAY,20.2%
same,ECAM protein expression (FACS),[2]; 2-DAY,20.87%
same,NCAM protein expression (FACS),[2]; 2-DAY,5.04%
same,SSEA-3 protein expression (FACS),[2]; 2-DAY,92.14%
same,CD9 protein expression (FACS),[2]; 5-DAY,7.27%
same,CXCR4 protein expression (FACS),[2]; 5-DAY,55.26%
same,ECAM protein expression (FACS),[2]; 5-DAY,14.17%
same,NCAM protein expression (FACS),[2]; 5-DAY,21.1%
same,SSEA-3 protein expression (FACS),[2]; 5-DAY,42.9%
same,CD9 protein expression (FACS),[2]; 8-DAY,4.1%
same,CXCR4 protein expression (FACS),[2]; 8-DAY,56.92%
same,ECAM protein expression (FACS),[2]; 8-DAY,1.02%
same,NCAM protein expression (FACS),[2]; 8-DAY,8.86%
same,SSEA-3 protein expression (FACS),[2]; 8-DAY,22.05%
same,expression of E-cadherin and N-cadherin (FACS),[2]; following activin A treatment,did not change
Wnt-3a,expression of DE markers,SA002 ES line,robust expression
same,expression of N-cadherin,H9 embryonic stem cells,enhanced expression
same,expression of e-cadherin,H9 embryonic stem cells,significant loss
same,"nuclei stained positive for SOX-17, HNF-3beta. and GATA-4",H9 embryonic stem cells,significantly larger number
